Among the data in article PMC11808397, “Development of selective nanomolar cyclic peptide ligands as GBA1 enzyme stabilisers” (RSC Chemical Biology, 2025) are IC50 values, retold here.

As a reminder, the IC50 is the midpoint of a concentration-inhibition curve. Lower therefore signals greater potency.

The target of one assay is T1, GBA2 (Homo sapiens, UniProt Q9HCG7).
T1 construct: expressed in transfected cells
T1 sequence (Q9HCG7 1-927): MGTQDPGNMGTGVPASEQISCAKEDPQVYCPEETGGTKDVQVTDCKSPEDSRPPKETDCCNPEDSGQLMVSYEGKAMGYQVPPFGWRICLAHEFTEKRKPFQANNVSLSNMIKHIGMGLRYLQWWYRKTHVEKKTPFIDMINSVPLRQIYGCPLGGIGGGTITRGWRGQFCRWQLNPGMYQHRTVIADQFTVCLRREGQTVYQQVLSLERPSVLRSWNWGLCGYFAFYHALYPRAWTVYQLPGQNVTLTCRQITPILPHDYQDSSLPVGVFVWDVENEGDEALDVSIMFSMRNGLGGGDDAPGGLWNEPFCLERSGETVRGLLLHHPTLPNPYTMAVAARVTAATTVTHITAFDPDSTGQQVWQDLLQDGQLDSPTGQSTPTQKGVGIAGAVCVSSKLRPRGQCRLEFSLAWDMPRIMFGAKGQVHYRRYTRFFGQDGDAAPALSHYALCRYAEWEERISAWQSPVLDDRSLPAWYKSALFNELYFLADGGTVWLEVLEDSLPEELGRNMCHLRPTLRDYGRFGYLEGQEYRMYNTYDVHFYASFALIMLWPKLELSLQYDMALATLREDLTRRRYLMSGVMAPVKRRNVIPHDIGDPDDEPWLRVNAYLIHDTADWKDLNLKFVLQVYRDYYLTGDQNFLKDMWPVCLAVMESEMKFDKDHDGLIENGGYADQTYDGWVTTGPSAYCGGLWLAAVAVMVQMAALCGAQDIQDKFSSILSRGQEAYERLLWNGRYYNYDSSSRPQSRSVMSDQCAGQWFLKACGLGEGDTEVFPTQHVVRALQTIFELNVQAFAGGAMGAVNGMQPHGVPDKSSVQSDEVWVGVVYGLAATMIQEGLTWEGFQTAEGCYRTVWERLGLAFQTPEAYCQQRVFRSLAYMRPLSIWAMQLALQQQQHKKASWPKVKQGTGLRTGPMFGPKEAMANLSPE
The assay can be described thus: GBA2 inhibition in overexpressing HEK293T lysates. It is filed as biochemical. The following applies: McIlvaine pH 5.8, 4-MU substrate. As to the method:
(§1) Based on the pull-down validation, a set of eight cyclic peptides (L1, L2, L4, L6, D1, D8, D12 and D13) were identified, synthesized, and evaluated for their inhibitory potency against recombinant human GBA1 (rhGBA1, Cerezyme®) and their selectivity over human β-glucosidases GBA2 and GBA3. Half-maximum inhibitory concentration (IC50) values for β-glucosidases were determined in vitro by measuring hydrolysis of 4-methylumbelliferyl-β-D-glucopyranoside (4-MU-β-D-Glu) fluorogenic substrate. […]
(§2) 2.5. In vitro IC50 and Ki measurements […]
(§3) nM) at 37 °C for 30 min. Following this, 100 µL of 4MU substrate was added and the samples were again incubated at 37 °C for 30 min. The reaction was quenched using excess 1 M NaOH-glycine (200 µL, pH 10.3) and 4MU fluorescence was measured using a LS55 fluorimeter (λEx 366 nm and λEm 445 […]
(§4) GBA2 and GBA3 IC50 values were determined following a similar protocol,5 using stable GBA2 or GBA3 HEK293T over-expression cell lysates and McIlvaine buffer pH 5.8 with 0.1 % BSA (w/v) and 100 mM HEPES with 0.1 % BSA, respectively. Covalent inhibitor of endogenous GBA1 (1 µM Bodipy green-cyclophellitol β-epoxide activity based probe) was added for both GBA2 and GBA3 assays, and GBA2 inhibitor N-(5-adamantane-1-yl-methoxy-pentyl)-deoxynojirimycin, AMP-DNM at 1 nM) was added for GBA3 assay. Cell lysates were pre-incubated with the aforementioned GBA1/GBA2 inhibitors for 30 min at 37 °C (12.5 µL) and subsequently incubated with the tested ligands at a range of concentrations for 30 min at 37 °C (12.5 µL), after which 100 µL 4MU-β-D-glucopyranoside was added for a final incubation of 30 min at 37 °C, quenched with 200 µL 1 M NaOH-glycine (pH 10.3) and fluorescence was measured. IC50 values were calculated using GraphPad Prism version 8.

For a further assay, the target named is T2, GBA3 (Homo sapiens, UniProt Q9H227).
T2 construct: expressed in transfected cells
T2 sequence (Q9H227 1-469): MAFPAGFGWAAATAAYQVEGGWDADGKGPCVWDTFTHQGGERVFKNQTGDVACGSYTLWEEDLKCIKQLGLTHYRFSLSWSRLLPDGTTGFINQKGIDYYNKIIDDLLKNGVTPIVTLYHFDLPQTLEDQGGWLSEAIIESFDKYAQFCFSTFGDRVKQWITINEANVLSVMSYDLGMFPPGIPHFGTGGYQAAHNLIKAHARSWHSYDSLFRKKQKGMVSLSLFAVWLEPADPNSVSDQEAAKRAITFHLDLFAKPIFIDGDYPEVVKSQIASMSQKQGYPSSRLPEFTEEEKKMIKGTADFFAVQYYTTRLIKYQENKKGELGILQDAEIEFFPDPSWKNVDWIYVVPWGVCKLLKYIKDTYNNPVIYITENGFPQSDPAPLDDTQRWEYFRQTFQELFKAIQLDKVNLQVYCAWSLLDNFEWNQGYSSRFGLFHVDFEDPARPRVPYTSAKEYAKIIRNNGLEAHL
The assay can be described thus: GBA3 inhibition in overexpressing HEK293T lysates. It is filed as biochemical. As to conditions: 100 mM HEPES, 4-MU substrate. On the procedure: as §1
Pure product fractions were pooled, lyophilized, and dissolved again in DMSO before concentration was determined by A280 using a sample diluted in phosphate buffer at pH 7.4 and extinction coefficients determined from the sequence using the Expasy ProtParam online tool (https://web.expasy.org/protparam/). […]
as §2, §3, §4

Positions of bridges follow the written chain, without caps; N, C: chain ends. Non-standard residues stand in square brackets, D forms with d. Residues, ends and D or L forms follow the SMILES beside them.

Turning to `CC[C@H](C)[C@H](NC(=O)[C@H](CC(C)C)NC(=O)[C@H](Cc1ccc(O)cc1)NC(=O)[C@H](Cc1ccc(O)cc1)NC(=O)[C@@H]1CSCC(=O)N[C@H](Cc2ccc(O)cc2)C(=O)N[C@@H](CCCNC(=N)N)C(=O)N[C@@H](C(C)C)C(=O)N1)C(=O)N[C@H](C(=O)N[C@H](C(=O)N[C@@H](CC(C)C)C(=O)N[C@@H](CC(=O)O)C(=O)N[C@@H](CS)C(N)=O)C(C)C)[C@@H](C)O` [D1] ({CH2CO}-[dY]RVCYYLITVLDC-NH2; thioether N-4), the 50% inhibitory concentration (IC50) on GBA2 and against GBA3 was > 100 µM throughout.
Turning to `CC(C)C[C@H](NC(=O)[C@@H](NC(=O)[C@H](CCCNC(=N)N)NC(=O)[C@@H]1CSCC(=O)N[C@H](Cc2ccc(O)cc2)C(=O)N[C@@H]([C@@H](C)O)C(=O)N2CCC[C@H]2C(=O)NCC(=O)N[C@@H](Cc2ccc(O)cc2)C(=O)N[C@@H](C(C)C)C(=O)N[C@@H](Cc2ccc(O)cc2)C(=O)N1)C(C)C)C(=O)N[C@@H](CCCCN)C(=O)N[C@@H](Cc1ccc(O)cc1)C(=O)N[C@@H](CS)C(N)=O` [D8] ({CH2CO}-[dY]TPGYVYCRVLKYC-NH2; thioether N-8), the IC50 against GBA2 and at GBA3 was > 100 µM each time.
With `CC(C)C[C@@H]1NC(=O)CNC(=O)[C@H](CC(C)C)NC(=O)[C@@H](Cc2ccc(O)cc2)NC(=O)CSC[C@@H](C(N)=O)NC(=O)[C@H](CO)NC(=O)[C@H](CCCCN)NC(=O)[C@H](CC(C)C)NC(=O)[C@H](Cc2ccccc2)NC(=O)[C@H](CCCNC(=N)N)NC(=O)[C@H](Cc2ccc(O)cc2)NC(=O)[C@H](Cc2c[nH]c3ccccc23)NC1=O` [D12] ({CH2CO}-[dY]LGLWYRFLKSC-NH2; thioether N-12), the 50% inhibitory concentration (IC50) against GBA2 was > 100 µM; against GBA3, ~85 µM.
As for `CC[C@H](C)[C@@H]1NC(=O)[C@H](CO)NC(=O)[C@H](CS)NC(=O)CNC(=O)CNC(=O)[C@H](CC(C)C)NC(=O)[C@H](Cc2ccc(O)cc2)NC(=O)[C@H](C(C)C)NC(=O)[C@H](CC(C)C)NC(=O)[C@H](CCCNC(=N)N)NC(=O)[C@@H]2CCCN2C(=O)[C@H](Cc2ccc(O)cc2)NC(=O)CSC[C@@H](C(N)=O)NC(=O)[C@H](CCC(=O)O)NC(=O)[C@H](CC(C)C)NC(=O)[C@H](CC(C)C)NC1=O` [L1] ({CH2CO}-YPRLVYLGGCSILLEC-NH2; thioether N-16), the IC50 against GBA2 and against GBA3 was > 100 µM each time.
As to `CC[C@H](C)[C@H](NC(=O)[C@H](CCCNC(=N)N)NC(=O)[C@@H]1CSCC(=O)N[C@@H](Cc2ccc(O)cc2)C(=O)N[C@@H](C)C(=O)N[C@@H](Cc2ccc(O)cc2)C(=O)N[C@@H](Cc2c[nH]c3ccccc23)C(=O)N[C@@H](Cc2c[nH]c3ccccc23)C(=O)N[C@@H](CC(C)C)C(=O)N1)C(=O)N1CCC[C@H]1C(=O)N[C@@H](Cc1c[nH]c2ccccc12)C(=O)N[C@@H](CC(C)C)C(=O)N[C@@H](CO)C(=O)N[C@H](C(N)=O)C(C)C` [L2] ({CH2CO}-YAYWWLCRIPWLSV-NH2; thioether N-7), the IC50 on GBA2 and against GBA3 was > 100 µM throughout.
As for `CC(C)C[C@@H]1NC(=O)CNC(=O)[C@H](Cc2ccccc2)NC(=O)[C@H](CC(C)C)NC(=O)[C@@H]2CCCN2C(=O)[C@H](Cc2ccc(O)cc2)NC(=O)CSC[C@@H](C(=O)N2CCC[C@H]2C(=O)N[C@@H](CC(N)=O)C(=O)N[C@@H](Cc2c[nH]c3ccccc23)C(=O)N[C@@H](Cc2ccccc2)C(=O)N2CCC[C@H]2C(=O)N[C@@H](Cc2ccc(O)cc2)C(=O)N[C@@H](CCC(N)=O)C(=O)N[C@@H](CS)C(N)=O)NC(=O)[C@H](CO)NC(=O)[C@H](Cc2ccccc2)NC1=O` [L4] ({CH2CO}-YPLFGLFSCPNWFPYQC-NH2; thioether N-9), the IC50 against GBA2 and at GBA3 was > 100 µM each time.
For `CC[C@H](C)[C@@H]1NC(=O)[C@H](Cc2ccc(O)cc2)NC(=O)CSC[C@@H](C(N)=O)NC(=O)[C@H](Cc2c[nH]c3ccccc23)NC(=O)[C@H](CCC(N)=O)NC(=O)[C@H]([C@@H](C)CC)NC(=O)[C@H]([C@@H](C)CC)NC(=O)[C@@H]2CCCN2C(=O)[C@H](C(C)C)NC(=O)[C@H](Cc2ccc(O)cc2)NC(=O)[C@H](Cc2c[nH]c3ccccc23)NC(=O)[C@H](CO)NC1=O` [L6] ({CH2CO}-YISWYVPIIQWC-NH2; thioether N-12), the IC50 against GBA2 and against GBA3 was > 100 µM in each case.
